Experimental data taken from PMC4158450 (Bioorganic & medicinal chemistry letters, 2014).

Key:
[1] = system: rA3AR; conditions: in words; cited from earlier work
[2] = biological target: T1, hA3AR (Homo sapiens, UniProt P0DMS8); conditions: 1S,2R diastereoisomer of 2 vs 1R,2S isomer; cited from earlier work
T1 sequence (P0DMS8 1-318): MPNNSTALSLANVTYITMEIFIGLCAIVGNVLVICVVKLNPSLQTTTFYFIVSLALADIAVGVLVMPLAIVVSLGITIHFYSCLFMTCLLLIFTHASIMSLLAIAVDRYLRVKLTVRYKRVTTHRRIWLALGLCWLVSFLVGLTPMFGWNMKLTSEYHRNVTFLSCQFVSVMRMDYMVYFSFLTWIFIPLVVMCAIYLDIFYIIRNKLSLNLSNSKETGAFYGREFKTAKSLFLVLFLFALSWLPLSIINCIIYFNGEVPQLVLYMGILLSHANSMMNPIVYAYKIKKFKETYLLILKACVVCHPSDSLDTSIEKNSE

[3] = biological target: hA2AAR (Homo sapiens, UniProt P29274); assay: hA2AAR radioligand binding
[4] = biological target: T1, hA3AR; assay: hA3AR radioligand binding; conditions: in words, vs hA1AR and hA2AAR
[5] = system: chronic neuropathic pain (mechanoallodynia), CCI model; assay: chronic constriction injury; assay type: in vivo, mouse; conditions: mice, oral administration

Chain of hA2AAR (P29274 whole entry): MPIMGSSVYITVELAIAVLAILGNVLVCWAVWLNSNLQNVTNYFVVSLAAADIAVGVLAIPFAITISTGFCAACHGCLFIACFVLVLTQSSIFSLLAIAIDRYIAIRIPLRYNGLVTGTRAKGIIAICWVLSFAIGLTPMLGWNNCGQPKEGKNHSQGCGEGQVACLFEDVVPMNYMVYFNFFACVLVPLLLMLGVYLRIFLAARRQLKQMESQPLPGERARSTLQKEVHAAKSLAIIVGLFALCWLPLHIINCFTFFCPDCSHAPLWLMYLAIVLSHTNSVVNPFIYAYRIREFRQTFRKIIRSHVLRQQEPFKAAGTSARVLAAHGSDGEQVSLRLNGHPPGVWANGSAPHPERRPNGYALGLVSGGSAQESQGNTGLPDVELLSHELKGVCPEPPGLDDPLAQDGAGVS

OC[C@H]1O[C@@H](n2cnc3c(NC4CC4c4ccccc4)nc(C#Cc4ccccc4)nc32)[C@H](O)[C@@H]1O (some centres unmarked) [Compound 1]
affinity at the rA3AR as compared to the hA3AR [1]: substantially lower affinity

O=[N+]([O-])c1cccc(C2CC2Nc2nc(C#Cc3ccccc3)nc3c2ncn3[C@@H]2O[C@H](CO)[C@@H](O)[C@H]2O)c1 (some centres unmarked) [Compound 2]
fold more potent in binding to the hA3AR than the corresponding 1R,2S isomer [2]: ~ 10 fold

CNC(=O)[C@@]12C[C@@H]1[C@@H](n1cnc3c(N)nc(C#Cc4ccccc4)nc31)[C@H](O)[C@@H]2O [Compound 9]
Ki [3]: ~1 µM

CNC(=O)[C@@]12C[C@@H]1[C@@H](n1cnc3c(NC4CC4c4ccc(F)c(F)c4)nc(C#Cc4ccccc4)nc31)[C@H](O)[C@@H]2O (some centres unmarked) [Compound 15]
selectivity for the A3AR [4]: very selective

CNC(=O)[C@@]12C[C@@H]1[C@@H](n1cnc3c(N[C@@H]4C[C@H]4c4ccc(F)c(F)c4)nc(C#Cc4ccccn4)nc31)[C@H](O)[C@@H]2O [Compound 18]
time of peak effect post-administration [5]: 1 h
